This is an account of results in patent publication US9080197B2, “Equol level regulator” (priority 2005, dated 2015).

Where two headings read alike, the source gives them in different places. Where only a bound is given, the exact number is not on record here.

The conditions of experiment [1]: rat, Non-Patent Document 5; cited from earlier work.
For experiment [2], the system named is feces of an equol producer (microorganisms having conversion ability to equol). Briefly: Effect of carbohydrates upon equol production in anaerobic culture of feces of an equol producer with daidzein. In kind it is cell-based. Conditions: for Equol concentration in medium: anaerobic, 37° C., no carbohydrate 18.1 μM; for activity at 1 %: Homo sapiens. The text has this: The equol concentration regulating activity of a carbohydrate can be checked by taking feces from a human having ability to produce equol (equol producer), adding daidzein serving as a substrate for equol and a target carbohydrate to the feces thus taken, culturing the feces, determining the concentration of equol in the culture medium and fitting the determined equol concentration to the following equation in comparison with the concentration of equol in a culture medium containing no carbohydrate. Equal concentration regulating activity (%)=(equol concentration of a culture medium containing a target carbohydrate)/(equol concentration of a culture medium containing no carbohydrate)×100
Fresh feces of an equol producer were suspended in a dilute solution (10-fold by volume) containing 0.00255% of KH2PO4, 0.00255% of K2HPO4, 0.006% of NaCl, […] of (NH4)2SO4, 0.000255% of CaCl2, 0.000255% of MgSO4, 0.1% of a 0.1% resazurin solution, 2.2% of an 8% Na2CO3 solution and 0.05% of L-cysteine hydrochloride by use of glass beads (φ 3 mm) in anaerobic conditions and solid matter was removed by use of sterilized gauze. The solution was centrifuged at 8,000 rpm for 10 minutes. Precipitation was suspended in a dilute solution in the same amount thereof. The solution was stored in a freezer at −30° C. as it was.
The feces dilution solution was thawed and centrifuged again. Precipitation was resuspended in PY medium (100-fold by volume) containing 0.5% of peptone, 0.5% of trypticase peptone, 1% of yeast extract, 0.00005% of hemin, 0.0001% of vitamin K1, 0.05% of L-cysteine hydrochloride, 0.0006% of KH2PO4, 0.0006% of K2HPO4, 0.0012% of NaCl, 0.0006% of (NH4)2SO4, 0.00006% of CaCl2 and 0.00006% of MgSO4. At this time, adonitol, arabinose, cellobiose, erythritol, fructo-oligosaccharide, fructose, galactose, glucose, glycogen, inositol, […], lactitol, lactose, lactulose, maltose, mannitol, mannose, melezitose, melibiose, raffinose, rhamnose, ribose, sorbitol, sorbose, sucrose, trehalose, xylose, or galacto-oligosaccharide was added so as to obtain a final concentration of 1%. Simultaneously, a series of sample containing no carbohydrate was prepared. To the series of samples, daidzein was added so as to obtain a final concentration of 100 μM. Culture was performed in completely anaerobic conditions at 37° C. for 16 hours. Note that culture was performed independently in four series. From the culture solution obtained, daidzein and equol were extracted and subjected to HPLC analysis. Note that inositol used herein is myo-inositol manufactured by SIGMA and glycogen was one derived from oyster and manufactured by SIGMA. Trehalose is D(+) trehalose (α,α form) manufactured by SIGMA and galacto-oligosaccharide is TOS-S, which is a mixture of 4′galactosyl-lactose and 6′galactosyl-lactose, and manufactured by Yakult Pharmaceutical Industry Co., Ltd. Fructo-oligosaccharide is a mixture of 1-kestose, nystose and 1-fructosyl-D-nystose manufactured by Wako Pure Chemical Industries, Ltd.
Daidzein and equol were extracted by the following manner. To 500 μL of a culture solution, 250 μL of diethyl ether was added and sufficiently stirred. The solution mixture was centrifuged at 2,000 rpm for 10 minutes to obtain a diethyl ether layer. The remaining aqueous layer was subjected to diethyl ether extraction performed in the same manner. The ether layers obtained in the two extraction operations were combined, concentrated and dried under spray of nitrogen gas flow at 40° C. The dried product was dissolved in 250 μL of 80% methanol and filtrated through a filter to obtain a sample to be subjected to measurement.
Furthermore, HPLC was performed in the following conditions:
Daidzein and equol standard products were poured in the aforementioned conditions to form calibration curves, respectively. In this manner, daidzein and equol concentrations of the samples were determined. […]

Experiment [3] has as its system microorganism having conversion ability to equol. The experiment is described as follows: Sub-culture of feces of an equol producer in PY medium containing a carbohydrate (selective medium), daidzein-to-equol conversion. In kind it is cell-based. As to conditions: PY medium with 1% carbohydrate, daidzein 100 μM, 37° C., 16 hours per passage. Here is the method:
A feces suspension solution stored in the process according to Experimental Example 1 was added to 500 μL of PY mediums (to which adonitol or sorbose was previously added so as to obtain a final concentration of 1%; and distilled water was added in place of adonitol or sorbose for preparing a control sample) so as to obtain a content of 1/10 and daidzein was added so as to obtain a final concentration of 100 μM. Each medium was cultured at 37° C. for 16 hours in completely anaerobic conditions. After the culturing, an aliquot of 50 μL was taken from the culture solution and transferred to a fresh PY medium (500 μL). The remaining culture solution was subjected to daidzein and equol extraction. Thereafter, the same operation was repeatedly performed. In this manner, sub-culture was performed. At this time, a bacterial solution was appropriately subjected to gram staining and microscopically observed. The extraction of daidzein and equol, and quantification by HPLC were performed in accordance with the method described in Experimental Example 1. Each obtained daidzein and equol concentration was fitted into the following formula to obtain a daidzein-to-equol conversion rate. Note that culture was performed independently in three series to obtain an average conversion rate and standard deviation thereof. […]

The mark [4] stands for this setting: carbohydrate 1%, daidzein 100 μM, 16 hours.
Setting [5] is: read-out: daidzein-to-equol conversion rate.
Where [6] appears, read: relative to medium containing no carbohydrate (=100%), carbohydrate 1%, daidzein 100 μM, 16 hours, read-out: Equol concentration regulating activity.
Setting [7] is: sample containing no carbohydrate taken as 100%, carbohydrate 1%, read-out: daidzein-to-equol conversion rate.

For the molecule Inulin [reference compound], in experiment [1], the “equol concentration in the serum” value was “reduces”. Moreover, the “daidzein added to the medium remaining” value in experiment [2] (100 μM of daidzein added, carbohydrate 1%) was “mostly remained”. Moreover, the “effect on daidzein-to-equol conversion rate in this test system” value in experiment [2] (carbohydrate 1%) was “significantly decreases”. In experiment [2] (setting [4]), the equol production entry is “not observed” and the “Equol concentration in medium” value amounted to 0.0 µM. In experiment [2] (relative to medium containing no carbohydrate (=100%), carbohydrate 1%, daidzein 100 μM, 16 hours), the “Equol concentration regulating activity” value is on record as 0.0%.
On to `O=C(CO)[C@H](O)[C@@H](O)[C@H](O)CO` [Sorbose, sorbose], for which the “generation to which conversion ability to equol can be maintained in sub-culture” value in experiment [3] is reported as 11th. For the same molecule, the activity at 1 % in experiment [2] (setting [5]) is at least 200%; in experiment [2] (setting [6]), 468%. The “Equol concentration in medium” value in experiment [2] (setting [4]) came out at 84.5 µM.
For the molecule `OC[C@@H](O)[C@@H](O)[C@@H](O)CO` [Adonitol, adonitol], the “generation to which conversion ability to equol can be maintained in sub-culture” value in experiment [3] is 8th. For the same molecule, the results for the activity at 1 % in experiment [2] (setting [6]) and in experiment [2] (setting [7]) were 260% and at least 200%, respectively. The “Equol concentration in medium” value in experiment [2] (setting [4]) is 47.0 µM.
For the molecule `OC[C@H]1O[C@@H](O[C@@H]2[C@@H](CO)OC(O)(CO)[C@H]2O)[C@H](O)[C@@H](O)[C@H]1O` (mixture of isomers) [Lactulose, lactulose], the activity at 1 % in experiment [2] (setting [6]) is 8.1%; in experiment [2] (setting [7]), at most 50%. In addition, the “Equol concentration in medium” value in experiment [2] (setting [4]) amounted to 1.5 µM.
Taken in the same sequence, the figures for `OC[C@H]1O[C@H](O[C@H]2O[C@H](CO)[C@@H](O)[C@H](O)[C@H]2O)[C@H](O)[C@@H](O)[C@@H]1O` [Trehalose, D(+) trehalose] were 404%, at least 200% and 72.9 µM.
As for `OC[C@H]1O[C@@](CO)(O[C@H]2O[C@H](CO)[C@@H](O)[C@H](O)[C@H]2O)[C@@H](O[C@H]2O[C@H](CO)[C@@H](O)[C@H](O)[C@H]2O)[C@@H]1O` [Melezitose, melezitose], the activity at 1 % in experiment [2] (setting [6]) was 412%; in experiment [2] (setting [7]), at least 200%. Further, the “Equol concentration in medium” value in experiment [2] (setting [4]) came out at 74.3 µM.
In the case of `O=C[C@H](O)[C@@H](O)[C@@H](O)[C@H](O)CO` [Galactose, galactose], the activity at 1 % was at least 200% in experiment [2] (setting [5]) and 240% in experiment [2] (setting [6]). In experiment [2] (setting [4]), the “Equol concentration in medium” value came out at 65.0 µM.
In the case of `OC[C@H]1O[C@H](O[C@H]2[C@H](O)[C@@H](O)[C@H](O)O[C@@H]2CO)[C@H](O)[C@@H](O)[C@@H]1O` [Maltose, maltose], the activity at 1 % in experiment [2] (setting [6]) worked out at 58.5%. Besides, the “Equol concentration in medium” value in experiment [2] (setting [4]) worked out at 10.6 µM.
